From US6972296B2, “Carboxylic acid derivatives that inhibit the binding of integrins to their receptors” (Encysive Pharmaceuticals Inc., priority 1999, dated 2005)

Target: T1, α4β1 integrin (Homo sapiens, UniProt P05556+P13612)
T1 construct: endogenous in cells; host or cells: Ramos cells
Assay: Adhesion of calcein-labeled Ramos cells to CS1 (fibronectin) peptide conjugated ovalbumin
Assay type: cell-based
Conditions: Ramos cell adhesion to CS1 conjugated ovalbumin
Summary of the method: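 Calcein AM-labelled Ramos cells (2.5×10^5/well) with compound, up to 100 μM, added to plates coated with CS1 peptide–ovalbumin (0.5 μg/ml) and blocked with 3% BSA. Binding buffer TBS pH 7.5 with 1 mM each MgCl2, CaCl2, MnCl2; 30 min, 37 °C. After washes, adherent cells lysed and read fluorometrically; […].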

[1] = Table 5, dose required to give 50% inhibition
[2] = Table 7, dose required to give 50% inhibition

T1 sequence (P13612 34-1032): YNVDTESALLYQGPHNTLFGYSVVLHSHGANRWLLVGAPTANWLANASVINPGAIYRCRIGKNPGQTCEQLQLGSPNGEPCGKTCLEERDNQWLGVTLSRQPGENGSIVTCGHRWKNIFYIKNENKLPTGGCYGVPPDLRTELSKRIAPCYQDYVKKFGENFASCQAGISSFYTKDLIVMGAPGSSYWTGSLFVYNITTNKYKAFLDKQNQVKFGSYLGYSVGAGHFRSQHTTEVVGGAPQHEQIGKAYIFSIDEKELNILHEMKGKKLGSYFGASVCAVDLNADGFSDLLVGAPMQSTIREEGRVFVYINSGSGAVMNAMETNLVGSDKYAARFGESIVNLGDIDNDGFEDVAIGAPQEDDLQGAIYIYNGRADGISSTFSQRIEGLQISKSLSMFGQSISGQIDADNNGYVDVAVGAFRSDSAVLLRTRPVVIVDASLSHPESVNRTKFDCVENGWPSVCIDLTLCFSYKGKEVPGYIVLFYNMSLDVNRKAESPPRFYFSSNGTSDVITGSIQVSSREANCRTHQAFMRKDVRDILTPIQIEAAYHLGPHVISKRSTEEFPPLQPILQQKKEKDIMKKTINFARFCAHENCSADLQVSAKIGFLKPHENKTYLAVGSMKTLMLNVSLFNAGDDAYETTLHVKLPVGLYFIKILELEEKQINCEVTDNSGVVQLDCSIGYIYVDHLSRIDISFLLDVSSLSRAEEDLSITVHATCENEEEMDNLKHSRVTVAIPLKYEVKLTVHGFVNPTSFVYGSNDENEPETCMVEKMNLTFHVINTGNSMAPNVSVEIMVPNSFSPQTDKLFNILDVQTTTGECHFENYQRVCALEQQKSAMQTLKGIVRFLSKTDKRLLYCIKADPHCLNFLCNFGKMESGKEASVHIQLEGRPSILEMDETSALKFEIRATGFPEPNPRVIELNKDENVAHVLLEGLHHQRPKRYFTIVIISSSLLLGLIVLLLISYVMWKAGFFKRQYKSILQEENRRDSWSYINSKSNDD
T1 sequence (P05556 21-798): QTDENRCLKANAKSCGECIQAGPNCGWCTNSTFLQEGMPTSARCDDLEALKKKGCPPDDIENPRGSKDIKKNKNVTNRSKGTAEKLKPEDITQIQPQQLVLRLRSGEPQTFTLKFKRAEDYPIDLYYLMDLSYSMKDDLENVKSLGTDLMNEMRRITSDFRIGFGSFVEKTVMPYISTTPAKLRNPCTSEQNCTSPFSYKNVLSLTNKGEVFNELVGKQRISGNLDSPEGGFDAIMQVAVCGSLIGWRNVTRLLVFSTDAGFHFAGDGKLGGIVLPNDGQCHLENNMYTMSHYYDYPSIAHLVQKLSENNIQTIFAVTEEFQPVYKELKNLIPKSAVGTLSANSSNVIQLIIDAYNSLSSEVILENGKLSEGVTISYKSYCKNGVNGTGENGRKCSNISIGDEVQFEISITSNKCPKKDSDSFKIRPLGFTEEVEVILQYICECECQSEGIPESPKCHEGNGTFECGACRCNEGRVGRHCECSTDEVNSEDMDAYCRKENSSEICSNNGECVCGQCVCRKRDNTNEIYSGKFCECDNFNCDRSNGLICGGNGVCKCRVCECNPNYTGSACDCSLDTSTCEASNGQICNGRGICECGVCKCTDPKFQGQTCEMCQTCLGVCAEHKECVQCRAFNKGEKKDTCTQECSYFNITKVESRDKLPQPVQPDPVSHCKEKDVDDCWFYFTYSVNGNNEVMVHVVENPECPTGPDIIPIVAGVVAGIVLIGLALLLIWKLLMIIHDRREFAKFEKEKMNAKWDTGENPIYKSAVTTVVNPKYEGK

IC50 [1] | IC50 [2] | Compound | other results
 |  | CC(C)(C)c1ccc([C@H](CC(=O)O)NC(=O)Nc2c(O)ccn(Cc3ccccc3Cl)c2=O)cc1 | IC50 (Table 3, 30 minutes at 37° C.): 400 nM
200 nM |  | O=C(O)CC(NC(=O)Nc1c(O)ccn(Cc2ccccc2Cl)c1=O)c1cccc2ccccc12 (stereo not drawn) | 
25 nM |  | Cc1ccc(C(CC(=O)O)NC(=O)Nc2c(O)ccn(Cc3ccccc3Cl)c2=O)o1 (stereo not drawn) | 
2500 nM |  | COc1c(Cn2cccc(NC(=O)N[C@@H](CC(=O)O)c3ccc(C)cc3)c2=O)cccc1C(C)(C)C | 
10 nM |  | Cc1ccc([C@H](CC(=O)O)NC(=O)Nc2c(NC(=O)NC(C)(C)C)ccn(Cc3ccccc3Cl)c2=O)cc1 [(3S)-3-[({[4-{[(tert-butylamino)carbonyl]amino}-1-(2-chlorobenzyl)-2-oxo-1,2-dihydropyridin-3-yl]amino}carbonyl)amino]-3-(4-methylphenyl)propanoic acid] | 
 |  | CCc1ccn(Cc2ccccc2Cl)c(=O)c1NC(=O)N[C@@H](CC(=O)O)c1ccc(C)cc1 [(3S)-3-{[({1-[(2-chlorophenyl)methyl]-4-ethyl-2-oxo-1,2-dihydro-3-pyridinyl}amino)carbonyl]amino}-3-(4-methylphenyl)propanoic acid] | IC50 (Table 3, 30 minutes at 37° C.): 10 nM
10 nM |  | Cc1ccc([C@H](CC(=O)O)NC(=O)Nc2c(O)c(C)cn(Cc3c(C)cccc3Cl)c2=O)cc1 [(3S)-3-[({[1-(2-chloro-6-methylbenzyl)-4-hydroxy-5-methyl-2-oxo-1,2-dihydropyridin-3-yl]amino}carbonyl)amino]-3-(4-methylphenyl)propanoic acid] | 
 | 55 nM | Cc1ccccc1-c1ccc([C@H](CC(=O)O)NC(=O)Nc2c(O)c(C)cn(Cc3ccccc3Cl)c2=O)cc1 | 
 | 20 nM | Cc1ccc(C(CC(=O)O)NC(=O)Nc2c(O)c(C)cn(Cc3ccccc3Cl)c2=O)o1 (stereo not drawn) | 
 | 1 nM | CCN(c1cccc([C@H](CC(=O)O)NC(=O)Nc2c(O)c3c(n(Cc4c(C)cccc4Cl)c2=O)CCC3)c1)S(C)(=O)=O [(3S)-3-{[({1-[(2-chloro-6-methylphenyl)methyl]-4-hydroxy-2-oxo-2,5,6,7-tetrahydro-1H-cyclopenta[b]pyridin-3-yl}amino)carbonyl]amino}-3-{3-[ethyl(methylsulfonyl)amino]phenyl}propanoic acid] | 
 |  | CCOc1cc(OCC)cc([C@H](CC(=O)O)NC(=O)Nc2c(O)ccn(Cc3ccccc3Cl)c2=O)c1 | IC50 (Table 6, 30 minutes at 37° C.): 7 nM
5 nM |  | CCCc1cn(Cc2ccccc2Cl)c(=O)c(NC(=O)N[C@@H](CC(=O)O)c2ccc(OCC)c(OCC)c2)c1O [(3S)-3-[({[1-(2-chlorobenzyl)-4-hydroxy-2-oxo-5-propyl-1,2-dihydropyridin-3-yl]amino}carbonyl)amino]-3-(3,4-diethoxyphenyl)propanoic acid] | 
 |  | COc1cc([C@H](CC(=O)O)NC(=O)Nc2cccn(Cc3ccccc3Cl)c2=O)cc(OC)c1OC | IC50 (Table 4, 30 minutes at 37° C.): 40 nM
35 nM |  | Cc1ccc([C@H](CC(=O)O)NC(=O)Nc2c(O)ccn(Cc3ccc(S(=O)(=O)N(C)C)cc3)c2=O)cc1 | 
 | 5 nM | Cc1cn(Cc2c(C)cccc2Cl)c(=O)c(NC(=O)N[C@@H](CC(=O)O)c2ccc3c(c2)CCO3)c1O | 
 | 15 nM | Cc1cn(Cc2ccccc2Cl)c(=O)c(NC(=O)N[C@@H](CC(=O)O)c2ccccc2)c1O | 
 | 3 nM | Cc1cccc(Cl)c1Cn1c2c(c(O)c(NC(=O)N[C@@H](CC(=O)O)c3cccc(NS(C)(=O)=O)c3)c1=O)CCC2 [(3S)-3-{[({1-[(2-chloro-6-methylphenyl)methyl]-4-hydroxy-2-oxo-2,5,6,7-tetrahydro-1H-cyclopenta[b]pyridin-3-yl}amino)carbonyl]amino}-3-{3-[(methylsulfonyl)amino]phenyl}propanoic acid] | 
 | 15 nM | CSc1ccc(C(CC(=O)O)NC(=O)Nc2c(O)c(C)cn(Cc3ccccc3Cl)c2=O)cc1 (stereo not drawn) | 
25 nM |  | CCc1c(O)c(NC(=O)N[C@@H](CC(=O)O)c2ccc(C)cc2)c(=O)n(Cc2ccccc2Cl)c1C | 
20 nM |  | Cc1ccc([C@H](CC(=O)O)NC(=O)Nc2c(O)ccn(Cc3ccccc3C)c2=O)cc1 | 
 | 6 nM | CCCc1cn(Cc2c(Cl)cccc2OCC)c(=O)c(NC(=O)N[C@@H](CC(=O)O)c2cccc(OCC)c2)c1O | 
3 nM |  | CCOc1ccc([C@H](CC(=O)O)NC(=O)Nc2c(O)c(C)c(C)n(Cc3ccccc3Cl)c2=O)cc1OCC [(3S)-3-[({[1-(2-chlorobenzyl)-4-hydroxy-5,6-dimethyl-2-oxo-1,2-dihydropyridin-3-yl]amino}carbonyl)amino]-3-(3,4-diethoxyphenyl)propanoic acid] | 
 |  | COc1ccc(Cn2cccc(NC(=O)N[C@@H](CC(=O)O)c3ccc4c(c3)OCO4)c2=O)cc1 | IC50 (Table 4, 30 minutes at 37° C.): 3000 nM
 | 3 nM | CCOc1cccc(Cl)c1Cn1cc(C)c(O)c(NC(=O)N[C@@H](CC(=O)O)c2ccc3c(ccn3C)c2)c1=O [(3S)-3-[({[1-(2-chloro-6-ethoxybenzyl)-4-hydroxy-5-methyl-2-oxo-1,2-dihydropyridin-3-yl]amino}carbonyl)amino]-3-(1-methyl-1H-indol-5-yl)propanoic acid] | 
 | 20 nM | CCCc1ccc([C@H](CC(=O)O)NC(=O)Nc2c(O)c3c(n(Cc4c(C)cccc4Cl)c2=O)CCC3)cc1 | 
 |  | Cc1ccc([C@H](CC(=O)O)NC(=O)Nc2c(O)c(Cl)cn(Cc3ccccc3Cl)c2=O)cc1 [(3S)-3-[({[5-chloro-1-(2-chlorobenzyl)-4-hydroxy-2-oxo-1,2-dihydropyridin-3-yl]amino}carbonyl)amino]-3-(4-methylphenyl)propanoic acid] | IC50 (Table 6, 30 minutes at 37° C.): 6 nM

IC50 [1] | IC50 [2] | Compound | other results
 |  | COCCOCCOCCOc1ccn(Cc2ccccc2Cl)c(=O)c1NC(=O)N[C@@H](CC(=O)O)c1ccc(C)cc1 | IC50 (Table 3, 30 minutes at 37° C.): 2 nM
 |  | Cc1ccc([C@H](CC(=O)O)NC(=O)Nc2cccn(Cc3c(N)cccc3Cl)c2=O)cc1 | IC50 (Table 4, 30 minutes at 37° C.): 2000 nM
 | 4 nM | Cc1cccc([C@H](CC(=O)O)NC(=O)Nc2c(O)c3c(n(Cc4c(C)cccc4Cl)c2=O)CCC3)c1 | 
 |  | Cc1ccc([C@H](CC(=O)O)NC(=O)Nc2cccn(Cc3ccccc3C)c2=O)cc1 | IC50 (Table 4, 30 minutes at 37° C.): 100 nM
 | 4 nM | Cn1ccc2cc([C@H](CC(=O)O)NC(=O)Nc3c(O)c4c(n(Cc5ccccc5Cl)c3=O)CCC4)ccc21 [(3S)-3-[({[1-(2-chlorobenzyl)-4-hydroxy-2-oxo-2,5,6,7-tetrahydro-1H-cyclopenta[b]pyridin-3-yl]amino}carbonyl)amino]-3-(1-methyl-1H-indol-5-yl)propanoic acid] | 
 |  | Cc1cn(Cc2ccccc2Cl)c(=O)c(NC(=O)N[C@@H](CC(=O)O)c2cccc(OC(F)(F)F)c2)c1O | IC50 (Table 6, 30 minutes at 37° C.): 10 nM
8 nM |  | Cc1ccc([C@H](CC(=O)O)NC(=O)Nc2c(O)ccn(Cc3c(F)cccc3F)c2=O)cc1 [(3S)-3-[({[1-(2,6-difluorobenzyl)-4-hydroxy-2-oxo-1,2-dihydropyridin-3-yl]amino}carbonyl)amino]-3-(4-methylphenyl)propanoic acid] | 
 |  | CCCCOc1cccc([C@H](CC(=O)O)NC(=O)Nc2c(O)c3c(n(Cc4ccccc4Cl)c2=O)CCC3)c1 | IC50 (Table 6, 30 minutes at 37° C.): 20 nM
 |  | Cc1ccc([C@H](CC(=O)O)NC(=O)Nc2cccn(Cc3ccccc3Cl)c2=O)cc1 | IC50 (Table 4, 30 minutes at 37° C.): 100 nM
5 nM |  | COc1cc([C@H](CC(=O)O)NC(=O)Nc2c(O)ccn(Cc3ccccc3Cl)c2=O)cc2c1OCO2 [(3S)-3-[({[1-(2-chlorobenzyl)-4-hydroxy-2-oxo-1,2-dihydropyridin-3-yl]amino}carbonyl)amino]-3-(7-methoxy-1,3-benzodioxol-5-yl)propanoic acid] | 
 | 3 nM | Cc1cccc(Cl)c1Cn1c2c(c(O)c(NC(=O)N[C@@H](CC(=O)O)c3cccc(OC(F)F)c3)c1=O)CCC2 | 
250 nM |  | COc1ccccc1Cn1cccc(NC(=O)N[C@@H](CC(=O)O)c2ccc(C)cc2)c1=O | 
3 nM |  | COc1cccc(Cl)c1Cn1ccc(O)c(NC(=O)N[C@@H](CC(=O)O)c2ccc(C)cc2)c1=O [(3S)-3-[({[1-(2-chloro-6-methoxybenzyl)-4-hydroxy-2-oxo-1,2-dihydropyridin-3-yl]amino}carbonyl)amino]-3-(4-methylphenyl)propanoic acid] | 
100 nM |  | Cc1ccc([C@H](CC(=O)O)NC(=O)Nc2cccn(Cc3c(O)cccc3Cl)c2=O)cc1 | 
 | 18 nM | Cc1cn(Cc2ccccc2Cl)c(=O)c(NC(=O)N[C@@H](CC(=O)O)c2ccc3c(c2)CCC3)c1O | 
12 nM |  | COc1ccc(Cl)c(Cn2ccc(O)c(NC(=O)N[C@@H](CC(=O)O)c3ccc(C)cc3)c2=O)c1 | 
 | 20 nM | CCCc1cn(Cc2c(Cl)cccc2OCC)c(=O)c(NC(=O)N[C@@H](CC(=O)O)c2ccc(C)cc2)c1O | 
 | 2 nM | CCOc1cccc(Cl)c1Cn1c2c(c(O)c(NC(=O)N[C@@H](CC(=O)O)c3ccc4cc(OC)ccc4c3)c1=O)CCC2 | 
 |  | Cc1cn(Cc2ccccc2Cl)c(=O)c(NC(=O)N[C@@H](CC(=O)O)c2cccc(OCC(F)(F)F)c2)c1O | IC50 (Table 6, 30 minutes at 37° C.): 15 nM
 |  | O=C(O)C[C@H](NC(=O)Nc1cccn(Cc2ccccc2Cl)c1=O)c1ccccc1 | IC50 (Table 4, 30 minutes at 37° C.): 100 nM
 |  | Cc1ccc([C@H](CC(=O)O)NC(=O)Nc2cccn(Cc3cc(Cl)ccc3Cl)c2=O)cc1 | IC50 (Table 4, 30 minutes at 37° C.): 150 nM
 | 4 nM | CCOc1cccc(Cl)c1Cn1c2c(c(O)c(NC(=O)N[C@@H](CC(=O)O)c3cccc(OCC4CC4)c3)c1=O)CCC2 [(3S)-3-[({[1-(2-chloro-6-ethoxybenzyl)-4-hydroxy-2-oxo-2,5,6,7-tetrahydro-1H-cyclopenta[b]pyridin-3-yl]amino}carbonyl)amino]-3-[3-(cyclopropylmethoxy)phenyl]propanoic acid] | 
0.8 nM |  | CCOc1ccc([C@H](CC(=O)O)NC(=O)Nc2c(O)ccn(Cc3ccccc3Cl)c2=O)cc1OCC [(3S)-3-[({[1-(2-chlorobenzyl)-4-hydroxy-2-oxo-1,2-dihydropyridin-3-yl]amino}carbonyl)amino]-3-(3,4-diethoxyphenyl)propanoic acid] | 
 | 7 nM | CCOc1cccc(Cl)c1Cn1nc(C)c(O)c(NC(=O)N[C@@H](CC(=O)O)c2ccc(C)cc2)c1=O | 
 |  | COc1ccc([C@H](CC(=O)O)NC(=O)Nc2cccn(Cc3cccs3)c2=O)cc1 | IC50 (Table 4, 30 minutes at 37° C.): 800 nM
